{"source": "patent US20260102407A1", "about": "“TREATMENT METHODS” (priority 2020, published 2026)", "key": {"[1]": {"tested_on": "VCAM-1", "assay": "Immunohistochemical staining of rat retina, VCAM-1", "format": "in vivo", "settings": "lasered rat retinas", "source_text": "Rat choroidal laser injury model. Male Brown Norway pigmented rats (8-14 week-old) were anesthetized by an intramuscular injection of Rompun® (xylazine)/Imalgene® (ketamine). Pupils were dilated by instillation of one drop of 0.5% tropicamide before laser burn. Six burns were created in both eyes on Day 0 by applying 170 mW of 532 nm laser light (Viridis laser, Quantel, France) on 75 μm spots around the optic nerve, between the main retinal vessel branches, for 0.1s, through the slit lamp and contact lens. Production of a bubble at the time of laser application confirmed the rupture of Bruch's membrane. […] After anaesthesia, 10% sodium fluorescein (250 μl/100 g body weight) was injected subcutaneously, and ocular fluorescence was recorded 10 min after dye injection. Fluorescein leakage was evaluated on Days 14 and 21 in the angiograms by two examiners masked to the study groups and graded for fluorescein intensity as follows: score 0: no leakage; 1: slightly stained; 2: moderately stained; 3: strongly stained.\nImmunohistochemical staining of rat retina. […] IOD of positive staining (red chromogen) was assessed for CD31, VEGF-A165, pERK, FosB and VCAM-1 using Image-Pro Plus software (Cybernetics, Bethesda, MD). IOD in IPL and INL was quantified for CD31; OPL to OS for VEGF-A165; INL to ONL for pERK; GCL to OS for FosB; OLM for VCAM-1, using Image-Pro Plus. […]"}, "[2]": {"tested_on": "VCAM-1", "assay": "Collagen antibody-induced arthritis, hind limb immunohistochemistry for VCAM-1", "format": "in vivo, mouse", "settings": "CAIA mice; Day 14 hind limbs", "description": "Collagen antibody-induced arthritis. Arthritis was induced in female Balb/c mice (6-8 week-old) as previously described with a commercially obtained cocktail of 5 monoclonal antibodies to type II collagen at 2 mg/mouse (Chondrex, Inc. Redmond, WA) followed by LPS (50 μg/mouse) with or without BT2 (3 or 30 mg/kg mouse) in DMSO vehicle was administered i.p. on Day 3. Hind footpad thickness was measured on Day 9 using digital calipers. Mice were sacrificed on Day 14 and microCT scanning of hind limbs was performed.\nImmmunohistochemical staining of hind limbs for VCAM-1 and ICAM-1 and analysis. Formalin-fixed, paraffin embedded of hind limbs were sectioned (5 μm). Dako EnVision Rabbit Kit (cat. K4011, Dako) was used for immmunohistochemical staining for VCAM-1 and ICAM-1. […] Integrated optical density (IOD) of positive staining in ankle joint (tibia and talus) articular cartilage was assessed for VCAM-1 and ICAM-1 using Image-Pro Plus software (Cybernetics, Bethesda, MD, USA). Area (μm^2) of ankle joint articular cartilage was measured using Image-Pro Plus software. Total cell number and positive staining cell number in ankle joint articular cartilage were counted manually using Image-Pro Plus software. […]"}}, "data": [{"smiles": "CCOC(=O)Nc1ccc2c(c1)C(=O)N(CC)c1ccccc1O2", "note": "[BT2, (10-ethyl-11-oxo-10,11-dihydro-dibenzo[b,f][1,4]oxazepin-2-yl)-carbamic acid ethyl ester]", "values": [{"measurement": "inducible VCAM-1 expression in the OLM", "setting": "[1]", "value": "reduced inducible VCAM-1 expression"}, {"measurement": "VCAM-1 expression in bone", "setting": "[2]", "value": "inhibit VCAM-1 and ICAM-1 expression"}]}]}
